Measurements from patent US11584775B2, “C4-modified oleanolic acid derivatives for inhibition of IL-17 and other uses” (REATA PHARMACEUTICALS, INC., priority 2015, dated 2023).

Tests used:
[1] = system: hIL17; assay: IL-17 release from differentiated primary human T-cells (IL-17A HTRF assay); assay type: cell-based; details: inhibition of IL-17A levels; primary human CD4+ T cells differentiated into Th17 cells, 46-hour incubation
Protocol: D. IL-17 Release from Differentiated Primary Human T-Cells and Cell Viability
Primary human cryopreserved CD4+ T Cells (Lonza, donor #0000402103) were plated in Lymphocyte Growth Medium-3 (LGM-3, Lonza) according to the manufacturer's recommendations, and allowed to recover for approximately 3 hours at 37° C. with 5% CO2 in a humidified atmosphere. After the recovery step, cells were collected by centrifugation and re-plated in 96-well plates at a density of ˜140,000 cells per well in LGM-3 medium that contained DMSO (vehicle) or test compound (2-500 nM or 4-1000 nM concentration range). Triplicate wells were plated for each test condition. DMSO (final concentration ≤0.1%) was used as the vehicle. Immediately after plating, CD4+ T cells were activated by adding Dynabeads Human T-Activator CD3/CD28 (Life Technologies; bead-to-cell ratio of 1:2.5) and differentiated into Th17 cells by adding a mixture of the following cytokines: transforming growth factor-β (TGF-β, 5 ng/mL), IL-6 (20 ng/mL), IL-23 (20 ng/mL), and […] (10 ng/mL). Undifferentiated control cells received only cytokine IL-2 (50 ng/mL). All human recombinant cytokines were purchased from R&D Systems. Following a 46-hour incubation at 37° C. with 5% CO2 in a humidified atmosphere, the plates were centrifuged for 3 minutes at 250×g, and half of the supernatant was transferred to a new plate to be used in the IL-17A assay (see below). Cell viability was assessed in the original plate using the CyQuant Direct Assay (Life Technologies). CyQuant values from test compound samples were normalized to those from DMSO-treated samples. The concentration of IL-17A in the supernatant was measured using the Homogeneous Time-Resolved Fluorescence (HTRF) assay (Cisbio Bioassays) according to the manufacturer's protocol. The assay was performed at room temperature in low volume, solid white 384-well plates (Greiner Bio-One). Samples and standards (serially-diluted human recombinant IL-17A (0 to 5,000 pg/mL concentration range; Cisbio Bioassays) were incubated with the anti-human IL-17A antibody conjugate for 16 hours and fluorescence was measured using a Pherastar FS microplate reader (BMG Labtech) in the HTRF mode (excitation at 337 nm and emission at 665 nm and 620 nm). IL-17A concentrations were assessed in duplicate aliquots of supernatant from each well resulting in a total of six readings per test condition. The 665 nm/620 nm signal ratio was calculated and the concentration of IL-17A in each sample was determined by interpolation from the standard curve. IL-17A values from test compound samples were normalized to those from DMSO-treated samples. Data were analyzed using GraphPad Prism version 6.00 for Windows (GraphPad Software, La Jolla Calif. USA). A non-linear regression analysis with log (inhibitor) vs. normalized response using a variable slope was applied to fit the data and determine the IC50 values for inhibition of IL-17A levels and cell viability.

[2] = target: T1, human RORγ (Homo sapiens, UniProt P51449); assay: RORγ assay (GAL4-RORγ hybrid luciferase reporter, inverse-agonist activity); assay type: cell-based; details: GAL4-RORγ hybrid reporter cells, 23 hours
T1 sequence (P51449 269-508 limits assumed): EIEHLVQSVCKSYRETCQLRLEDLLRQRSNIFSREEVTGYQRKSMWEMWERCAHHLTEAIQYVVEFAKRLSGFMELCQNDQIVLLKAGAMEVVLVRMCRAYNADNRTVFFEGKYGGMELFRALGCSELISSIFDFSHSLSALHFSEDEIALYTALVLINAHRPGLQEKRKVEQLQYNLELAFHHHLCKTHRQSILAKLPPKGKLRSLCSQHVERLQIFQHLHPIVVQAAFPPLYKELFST
Excerpt: C. RORγ Assay and Cell Viability
The RORγ assay system was purchased from Indigo Biosciences. This nuclear receptor assay utilizes a human cell line that has been engineered to express a hybrid form of the Human RAR-related Orphan Receptor Gamma (RORγ) at high levels. The N-terminal DNA binding domain (DBD) of the native RORγ receptor was substituted with the yeast GAL4-DBD to generate the GAL4-RORγ hybrid nuclear receptor. The reporter cell line is transfected with a plasmid that encodes the beetle luciferase gene under the control of the GAL4 upstream activating sequence (UAS). GAL4 binds to the UAS and increases transcription of downstream target genes. […] To assess the RORγ inverse-agonist activity of the test compounds, reporter cells were plated in white 96-well plates in triplicate and were treated with DMSO (vehicle) or test compound (concentration ranges of 0.4-200 nM or 2-1000 nM) at 37° C. with 5% CO2 in a humidified atmosphere for 23 hours. After this incubation, luciferin was added to the wells and luciferase activity was determined by measuring the luminescence signal using a BMG Pherastar microplate reader. Viability was determined using the Live Cell Multiplex Assay (Indigo Biosciences). Values from test compound samples were normalized to those from DMSO-treated samples. Data were analyzed using GraphPad Prism version 6.00 for Windows (GraphPad Software, La Jolla Calif. USA). A non-linear regression analysis with log (inhibitor) vs. normalized response using a variable slope was applied to fit the data and determine the IC50 values for inhibition of RORγ and cell viability.

[3] = system: NRF2; assay: AREc32 luciferase reporter assay; assay type: cell-based, human; details: EC2×: concentration required to increase GST ARE Luciferase reporter activity by 2-fold; AREc32 cells, 19 hours
Excerpt: B. AREc32 Luciferase Reporter Assay
The AREc32 luciferase reporter assay allows for quantitative assessment of the endogenous activity of the Nrf2 transcription factor in cultured mammalian cells. AREc32 cells are derived from MCF-7 human breast carcinoma cells that were stably transfected with a reporter construct that contains the firefly luciferase gene located downstream of eight copies of the rat GSTA2 antioxidant response element (ARE) sequence (Wang et al., 2006; CXR Biosciences). Active NRF2 binds to the ARE sequences and increases expression of the firefly luciferase gene. To assess the NRF2-activating potential of the test compounds, AREc32 cells were plated in black 96-well plates at a density of 20,000 cells per well in triplicate in DMEM+10% FBS+0.8 mg/mL Geneticin and incubated at 37° C. with 5% CO2 in a humidified atmosphere. The next day, cells were treated with DMSO (vehicle) or test compound (concentration ranges of 0.4-200 nM or 2-1000 nM) for 19 hours. Luciferase activity was determined using the ONE-Glo Luciferase assay (Promega). The luminescence signal was measured on a BMG Pherastar microplate reader. The mean luminescence value from test compound-treated wells was normalized to that from DMSO-treated wells and was represented as fold-induction. Data were analyzed using GraphPad Prism version 6.00 for Windows, GraphPad Software, La Jolla Calif. USA. A non-linear regression curve with log (agonist) vs. response using a variable slope was used to fit the data. Where applicable, a maximum threshold value of 50-fold over DMSO was set. EC2× values were interpolated from the curve. EC2× corresponds to the concentration of test compound required to increase GST ARE Luciferase reporter activity by 2-fold.

[4] = system: IFNγ-induced Nitric Oxide production; assay: Nitric oxide production assay in RAW 264.7 mouse macrophages; assay type: cell-based; details: RAW264.7, suppression of IFNγ-induced NO production normalized to cell viability (WST-1), RAW 264.7, 24 hours IFNγ
Protocol: A. Nitric Oxide Production Assay and Cell Viability
RAW 264.7 mouse macrophages were plated in 96-well plates at a density of 30,000 cells per well in triplicate in RPMI 1640+0.5% FBS and incubated at 37° C. with 5% CO2 in a humidified atmosphere. The next day, cells were pre-treated with DMSO (vehicle) or test compound (concentration ranges of 0.4-200 nM or 2-1000 nM) for 2 hours and then treated with recombinant mouse IFNγ (R&D Systems) for 24 hours. Nitric oxide concentration in media was determined using the Griess reagent system (Promega). Cell viability was determined using WST-1 reagent (Roche). Values from test compound samples were normalized to those from DMSO/IFNγ-treated samples. IC50 values were determined based on the suppression of IFNγ-induced Nitric Oxide production normalized to cell viability.

Row | Compound | IC50 [1] | IC50 [2] | EC2x: concentration giving 2-fold induction of ARE luciferase reporter [3] | IC50 [4]
1 | COC(=O)[C@]12CCC(C)(C)C[C@H]1[C@H]1C(=O)C=C3[C@@]4(C)C=C(C#N)C(=O)[C@@](C)(NC(=O)OC(C)(C)C)[C@@H]4CC[C@@]3(C)[C@]1(C)CC2 [Compound T10] | 0.204 µM | 1.07 µM | >1000 nM | 0.414 µM
2 | CC1(C)CC[C@]2(NC(=O)C(C)(F)F)CC[C@]3(C)[C@H](C(=O)C=C4[C@@]5(C)C=C(C#N)C(=O)[C@@](C)(O)[C@@H]5CC[C@]43C)[C@@H]2C1 [Compound T27, N-((4aS,6aR,6bS,8aR,9S,12aS,14aR,14bS)-11-cyano-9-hydroxy-2,2,6a,6b,9,12a-hexamethyl-10,14-dioxo-1,3,4,5,6,6a,6b,7,8,8a,9,10,12a,14,14a,14b-hexadecahydropicen-4a(2H)-yl)-2,2-difluoropropanamide] | 0.062 µM | 0.41 µM | 396 nM | 0.146 µM
3 | CC1(C)CC[C@]2(C(=O)NCC(F)(F)F)CC[C@]3(C)[C@H](C(=O)C=C4[C@@]5(C)C=C(C#N)C(=O)C(C)(C)[C@@H]5CC[C@]43C)[C@@H]2C1 [Comparison Compound #2, reference compound] | 0.04 µM | 0.104 µM | 53 nM | 0.0045 µM
4 | CC1(C)CC[C@@]23CC[C@@]4(C)[C@]5(C)CC[C@H]6[C@](C)(O)C(=O)C(C#N)=C[C@]6(C)C5=CC(=O)[C@]4(OC2=O)[C@@H]3C1 [Compound T33, (4S,4aR,6aR,6bS,8aS,12aR,12bS,14bS)-4-hydroxy-4,6a,6b, 11,11,14b-hexamethyl-3,13,16-trioxo-4,4a,5,6,6a,6b,7,8,10,11,12,12a,13,14b-tetradecahydro-3H,9H-12b,8a-(epoxymethano)picene-2-carbonitrile] | 0.025 µM | 0.22 µM | 120 nM | 0.0799 µM
5 | CCNC(=O)[C@]12CCC(C)(C)C[C@H]1[C@H]1C(=O)C=C3[C@@]4(C)C=C(C#N)C(=O)C(C)(C)[C@@H]4CC[C@@]3(C)[C@]1(C)CC2 [Comparison Compound #3, reference compound] | 0.081 µM | 0.204 µM | 32 nM | 0.0034 µM
6 | COC(=O)N[C@]12CCC(C)(C)C[C@H]1[C@H]1C(=O)C=C3[C@@]4(C)C=C(C#N)C(=O)[C@@](C)(CO)[C@@H]4CC[C@@]3(C)[C@]1(C)CC2 [Compound T40, methyl ((4aS,6aR,6bS,8aR,9R,12aS,14aR,14bS)-11-cyano-9-(hydroxymethyl)-2,2,6a,6b,9,12a-hexamethyl-10,14-dioxo-1,3,4,5,6,6a,6b,7,8,8a,9,10,12a,14,14a,14b-hexadecahydropicen-4a(2H)-yl)carbamate] | 0.037 µM | 0.698 µM | 130 nM | 0.0246 µM

These reach a lower IC50 [1]. Values come first.

Row | IC50 [1] | IC50 [2] | Compound | EC2x: concentration giving 2-fold induction of ARE luciferase reporter [3] | IC50 [4]
7 | 0.015 µM | 0.233 µM | COC(=O)[C@]12CCC(C)(C)C[C@H]1[C@H]1C(=O)C=C3[C@@]4(C)C=C(C#N)C(=O)[C@@](C)(CCO)[C@@H]4CC[C@@]3(C)[C@]1(C)CC2 [Compound T19] | 76 nM | 0.0174 µM
8 | 0.02 µM | 0.177 µM | CC1(C)CC[C@@]23CC[C@@]4(C)[C@]5(C)CC[C@@H]6[C@](C)(C=C(C#N)C(=O)[C@@]6(C)CO)C5=CC(=O)[C@]4(OC2=O)[C@@H]3C1 [Compound T31, (4R,4aR,6aR,6bS,8aS,12aR,12bS,14bS)-4-(hydroxymethyl)-4,6a,6b, 11,11,14b-hexamethyl-3,13,16-trioxo-4,4a,5,6,6a,6b,7,8,10,11,12,12a,13,14b-tetradecahydro-3H,9H-12b,8a-(epoxymethano)picene-2-carbonitrile] | 21 nM | 0.0105 µM
9 | 0.018 µM | 0.608 µM | Cc1noc([C@]23CCC(C)(C)C[C@H]2[C@H]2C(=O)C=C4[C@@]5(C)[C@H]6O[C@@]6(C#N)C(=O)[C@@](C)(O)[C@@H]5CC[C@@]4(C)[C@]2(C)CC3)n1 [Compound T49, (1 aR,3S,3aR,5aS,5bR,7aS,11aS,11bR,13bS,13cR)-3-hydroxy-3,5a,5b, 10,10,13b-hexamethyl-7a-(3-methyl-1,2,4-oxadiazol-5-yl)-2,12-dioxo-3,3a,4,5,5a,5b,6,7,7a,8,9,10,11,11a,11b,12,13b,13c-octadecahydropiceno[1,2-b]oxirene-1a(2H)-carbonitrile] | 244 nM | 0.0375 µM
10 | 0.018 µM | 0.115 µM | COC(=O)[C@]12CCC(C)(C)C[C@H]1[C@H]1C(=O)C=C3[C@@]4(C)C=C(C#N)C(=O)[C@@](C)(O)[C@@H]4CC[C@@]3(C)[C@]1(C)CC2 [Compound T5] | 56 nM | 0.0226 µM
